Source: PubChem BioAssay AID1259407 (Chemical Carcinogenesis Research Information System (CCRIS), 2018)
The source made the active and inactive calls. The rule behind the calls is not given here.

Tested on: CCRIS mutagenicity, Ames/micronucleus/aberration tests
Assay: CCRIS mutagenicity studies
[1] = Test System: AMES SALMONELLA TYPHIMURIUM, Strain/Indicator: TA98, Metabolic Activation: NONE, Method: STANDARD PLATE
[2] = Test System: AMES SALMONELLA TYPHIMURIUM, Strain/Indicator: TA98, Metabolic Activation: RAT, LIVER, S-9, AROCLOR 1254, Method: STANDARD PLATE
[3] = Test System: AMES SALMONELLA TYPHIMURIUM, Strain/Indicator: TA100, Metabolic Activation: NONE, Method: STANDARD PLATE
[4] = Test System: AMES SALMONELLA TYPHIMURIUM, Strain/Indicator: TA100, Metabolic Activation: RAT, LIVER, S-9, AROCLOR 1254, Method: STANDARD PLATE
[5] = Test System: AMES SALMONELLA TYPHIMURIUM, Strain/Indicator: TA98, Metabolic Activation: NONE, Method: PREINCUBATION

With `CCN(CC)C(=O)Nc1ccc(OCC(O)CNC(C)(C)C)c(C(C)=O)c1` (stereo not given) the mutagenic call (Test System: AMES SALMONELLA TYPHIMURIUM, Strain/Indicator: TA97, Metabolic Activation: NONE, Method: STANDARD PLATE) was “inactive; negative”, the mutagenic call [1] was “inactive; negative” and the mutagenic call [2] was “inactive; negative”. For the same molecule, the mutagenic call (Test System: AMES SALMONELLA TYPHIMURIUM, Strain/Indicator: TA98, Metabolic Activation: RAT, S-9, AROCLOR 1254, Method: STANDARD PLATE) was “inactive; negative”, the mutagenic call [3] was “inactive; negative” and the mutagenic call [4] was “inactive; negative”. The mutagenic call (Test System: AMES SALMONELLA TYPHIMURIUM, Strain/Indicator: TA100, Metabolic Activation: RAT, S-9, AROCLOR 1254, Method: STANDARD PLATE) was “inactive; negative”, the mutagenic call (Test System: AMES SALMONELLA TYPHIMURIUM, Strain/Indicator: TA102, Metabolic Activation: NONE, Method: STANDARD PLATE) was “inactive; negative” and the mutagenic call (Test System: AMES SALMONELLA TYPHIMURIUM, Strain/Indicator: TA1535, Metabolic Activation: NONE, Method: STANDARD PLATE) was “inactive; negative”. For the same molecule, the mutagenic call (Test System: AMES SALMONELLA TYPHIMURIUM, Strain/Indicator: TA1535, Metabolic Activation: RAT, S-9, AROCLOR 1254, Method: STANDARD PLATE) was “inactive; negative”, the mutagenic call (Test System: AMES SALMONELLA TYPHIMURIUM, Strain/Indicator: TA1537, Metabolic Activation: NONE, Method: STANDARD PLATE) was “inactive; negative” and the mutagenic call (Test System: AMES SALMONELLA TYPHIMURIUM, Strain/Indicator: TA1537, Metabolic Activation: RAT, S-9, AROCLOR 1254, Method: STANDARD PLATE) was “inactive; negative”. The mutagenic call (Test System: AMES SALMONELLA TYPHIMURIUM, Strain/Indicator: TA1538, Metabolic Activation: NONE, Method: STANDARD PLATE) was “inactive; negative”, the mutagenic call (Test System: AMES SALMONELLA TYPHIMURIUM, Strain/Indicator: TA1538, Metabolic Activation: RAT, S-9, AROCLOR 1254, Method: STANDARD PLATE) was “inactive; negative” and the mutagenic call (Test System: E. COLI, Strain/Indicator: WP2, Metabolic Activation: NONE, Method: STANDARD PLATE) was “inactive; negative”. For the same molecule, the mutagenic call (Test System: E. COLI, Strain/Indicator: WP2, Metabolic Activation: RAT, S-9, AROCLOR 1254, Method: STANDARD PLATE) was “inactive; negative”, the mutagenic call (Test System: E. COLI, Strain/Indicator: WP2 UVRA, Metabolic Activation: NONE, Method: STANDARD PLATE) was “inactive; negative” and the mutagenic call (Test System: E. COLI, Strain/Indicator: WP2 UVRA, Metabolic Activation: RAT, S-9, AROCLOR 1254, Method: STANDARD PLATE) was “inactive; negative”.

For `Cc1cc2ccccc2cc1[N+](=O)[O-]`, the mutagenic call [5] was “inactive; negative”.

With `c1ccc(N(c2ccccc2)c2ccccc2)cc1` the mutagenic call (Test System: AMES SALMONELLA TYPHIMURIUM, Strain/Indicator: TA97, Metabolic Activation: HAMSTER, LIVER, S-9, AROCLOR 1254 (10 OR 30%), Method: PREINCUBATION) was “inactive; negative”, the mutagenic call (Test System: AMES SALMONELLA TYPHIMURIUM, Strain/Indicator: TA97, Metabolic Activation: NONE, Method: PREINCUBATION) was “inactive; negative” and the mutagenic call (Test System: AMES SALMONELLA TYPHIMURIUM, Strain/Indicator: TA97, Metabolic Activation: RAT, LIVER, S-9, AROCLOR 1254 (10 OR 30%), Method: PREINCUBATION) was “inactive; negative”. The mutagenic call (Test System: AMES SALMONELLA TYPHIMURIUM, Strain/Indicator: TA98, Metabolic Activation: HAMSTER, LIVER, S-9, AROCLOR 1254 (10%), Method: PREINCUBATION) was “inactive; negative”, the mutagenic call (Test System: AMES SALMONELLA TYPHIMURIUM, Strain/Indicator: TA98, Metabolic Activation: HAMSTER, LIVER, S-9, AROCLOR 1254 (10 OR 30%), Method: PREINCUBATION) was “inactive; negative” and the mutagenic call [5] was “inactive; negative”. For the same molecule, the mutagenic call (Test System: AMES SALMONELLA TYPHIMURIUM, Strain/Indicator: TA98, Metabolic Activation: RAT, LIVER, S-9, AROCLOR 1254 (10%), Method: PREINCUBATION) was “inactive; negative”, the mutagenic call (Test System: AMES SALMONELLA TYPHIMURIUM, Strain/Indicator: TA98, Metabolic Activation: RAT, LIVER, S-9, AROCLOR 1254 (10 OR 30%), Method: PREINCUBATION) was “inactive; negative” and the mutagenic call (Test System: AMES SALMONELLA TYPHIMURIUM, Strain/Indicator: TA100, Metabolic Activation: HAMSTER, LIVER, S-9, AROCLOR 1254 (10%), Method: PREINCUBATION) was “inactive; negative”. The mutagenic call (Test System: AMES SALMONELLA TYPHIMURIUM, Strain/Indicator: TA100, Metabolic Activation: HAMSTER, LIVER, S-9, AROCLOR 1254 (10 OR 30%), Method: PREINCUBATION) was “inactive; negative”, the mutagenic call (Test System: AMES SALMONELLA TYPHIMURIUM, Strain/Indicator: TA100, Metabolic Activation: NONE, Method: PREINCUBATION) was “inactive; negative” and the mutagenic call (Test System: AMES SALMONELLA TYPHIMURIUM, Strain/Indicator: TA100, Metabolic Activation: RAT, LIVER, S-9, AROCLOR 1254 (10%), Method: PREINCUBATION) was “inactive; negative”. The mutagenic call (Test System: AMES SALMONELLA TYPHIMURIUM, Strain/Indicator: TA100, Metabolic Activation: RAT, LIVER, S-9, AROCLOR 1254 (10 OR 30%), Method: PREINCUBATION) was “inactive; negative”, the mutagenic call (Test System: AMES SALMONELLA TYPHIMURIUM, Strain/Indicator: TA1535, Metabolic Activation: HAMSTER, LIVER, S-9, AROCLOR 1254 (10%), Method: PREINCUBATION) was “inactive; negative” and the mutagenic call (Test System: AMES SALMONELLA TYPHIMURIUM, Strain/Indicator: TA1535, Metabolic Activation: HAMSTER, LIVER, S-9, AROCLOR 1254 (10 OR 30%), Method: PREINCUBATION) was “inactive; negative”. The mutagenic call (Test System: AMES SALMONELLA TYPHIMURIUM, Strain/Indicator: TA1535, Metabolic Activation: NONE, Method: PREINCUBATION) was “inactive; negative”, the mutagenic call (Test System: AMES SALMONELLA TYPHIMURIUM, Strain/Indicator: TA1535, Metabolic Activation: RAT, LIVER, S-9, AROCLOR 1254 (10%), Method: PREINCUBATION) was “inactive; negative” and the mutagenic call (Test System: AMES SALMONELLA TYPHIMURIUM, Strain/Indicator: TA1535, Metabolic Activation: RAT, LIVER, S-9, AROCLOR 1254 (10 OR 30%), Method: PREINCUBATION) was “inactive; negative”. For the same molecule, the mutagenic call (Test System: AMES SALMONELLA TYPHIMURIUM, Strain/Indicator: TA1537, Metabolic Activation: HAMSTER, LIVER, S-9, AROCLOR 1254 (10%), Method: PREINCUBATION) was “inactive; negative”, the mutagenic call (Test System: AMES SALMONELLA TYPHIMURIUM, Strain/Indicator: TA1537, Metabolic Activation: HAMSTER, LIVER, S-9, AROCLOR 1254 (10 OR 30%), Method: PREINCUBATION) was “inactive; negative” and the mutagenic call (Test System: AMES SALMONELLA TYPHIMURIUM, Strain/Indicator: TA1537, Metabolic Activation: NONE, Method: PREINCUBATION) was “inactive; negative”. The mutagenic call (Test System: AMES SALMONELLA TYPHIMURIUM, Strain/Indicator: TA1537, Metabolic Activation: RAT, LIVER, S-9, AROCLOR 1254 (10%), Method: PREINCUBATION) was “inactive; negative” and the mutagenic call (Test System: AMES SALMONELLA TYPHIMURIUM, Strain/Indicator: TA1537, Metabolic Activation: RAT, LIVER, S-9, AROCLOR 1254 (10 OR 30%), Method: PREINCUBATION) was “inactive; negative”.

`CNC(=O)Oc1ccccc1` was tested, and the mutagenic call [2] was “inactive; negative” and the mutagenic call (Test System: AMES SALMONELLA TYPHIMURIUM, Strain/Indicator: TA1535, Metabolic Activation: RAT, LIVER, S-9, AROCLOR 1254, Method: STANDARD PLATE) was “inactive; negative”.

In the case of `CC1CCC(NC(=O)N(CCCl)N=O)CC1` (stereo not given), the mutagenic call (Test System: AMES SALMONELLA TYPHIMURIUM, Strain/Indicator: G46, Metabolic Activation: NONE) is reported as “active; positive”, the mutagenic call [3] is reported as “active; positive” and the mutagenic call [4] is reported as “active; positive”. The mutagenic call (Test System: AMES SALMONELLA TYPHIMURIUM, Strain/Indicator: TA1535, Metabolic Activation: NONE) was “active; positive”.

`Cn1cnc2cc([N+](=O)[O-])ccc21` was tested, and the mutagenic call [1] was “inactive; negative”.

For `CN(N=O)C(=O)Nc1ccc(F)cc1`, the mutagenic call (End Point: IN VITRO CHROMOSOMAL ABERRATIONS, Test System: CHINESE HAMSTER V79-E CELLS, Metabolic Activation: NONE) was “active; weakly positive”.
